Results on five compounds are retold here after patent US11564388B2, “Supercooling methods for preservation of biological samples” (X-Therma, Inc., priority 2017, dated 2023).

The nature of data set [1]: Crystallographic x-ray diffraction (XRD) ice formation assay. It counts as physicochemical. As to conditions: for reduction of necessary EG concentration while preventing ice formation (ice ring scores): XRD, EG 15-30% (v/v), peptoid 1 and 5 mg/mL. How it is done: In order to increase the throughput of library analysis, a crystallographic x-ray diffraction (XRD) technique was used to evaluate ice crystal formation. For these experiments, the compounds named “Compound 2,” “Compound 8,” “Compound 10,” “Compound 11,” “Compound 12,” “Compound 13,” and “Compound 58” were tested. Compound 58 is similar to Compound 12, except that an arginine amino acid has been appended to the N-terminal end.
For these experiments, EG concentrations between 15% and 30% (v/v) were used. Typically, EG, DMSO, and other cryoprotectants are used during XRD sample analysis at concentrations of 35-40% (v/v) to vitrify solutions and avoid diffraction interference from ice crystals. Concentrations of 1 and 5 mg/mL of the peptoid and peptoid-peptide compounds were used. FIGS. 3A, 3B, and 3C illustrate exemplary XRD data under conditions of complete vitrification, partial vitrification with the presence of cubic ice, and freezing ([…]), respectively. FIG. 3D provides ice rings scores for a variety of EG concentrations and two concentrations of Compounds 2, 8, and 12.
“IceRing1” and “IceRing2” refer to ice formation scores, which range between 0 (no ice formation) and 15 (large ice formation).
The sample containing Compound 12 at a concentration of 5 mg/mL (0.5% (w/v)) and EG at a concentration of 17.5% (v/v) in water was ice-free after flash freezing. […] In the figures, black spots and rings represent ice crystals.

The nature of data set [2]: Larger volume flash freeze, rewarming and −20° C. storage assay. It counts as physicochemical. As to conditions: 22.5% EG. The method, then:
In order to test the usefulness of compositions of the present invention at larger scales, experiments were performed using solution volumes that are similar to volumes used for standard egg and stem cell preservation. For these experiments, two samples, one containing 22.5% EG and buffer only, and another containing 22.5% EG and 5 mg/ml (0.5% w/v) of Compound 12 and buffer, were flash frozen in liquid nitrogen. […] The rewarming of the solutions in a 37° C. water bath led to an unexpected and beneficial result. The Compound 12 solution bypassed devitrification in less than 2 seconds upon rewarming (FIG. 6B, right), whereas chunks of ice were seen floating in the control sample (FIG. 6B, left) after 20 seconds. Condensation was seen on each of the tubes because the tubes were actually still much below room temperature.

A further data set has as its system HEK 293 cell line. In words: Cytotoxicity assay (MTT). It counts as cell-based, human. The method, then:
A Tecan Genesis Robotic Workstation was used to prepare solutions in 96- and 384-well plates. Solutions contained culture media, buffers, a cryoprotectant composition of the present invention (Compound 12) or DMSO. Solutions were adjusted to the desired pH. Serial dilutions were performed to obtain solutions containing various concentrations of Compound 12 and DMSO. Control experiments were performed using only culture media.
For these experiments, cells were seeded at low density (i.e., 10% confluence), exposed to solutions containing Compound 12 or DMSO, and placed in a 37° C. incubator. The cells were allowed to grow until control cells that were treated only with empty vehicle approached 70% confluence (typically about 3 to 5 days). Assessment for compound cytotoxicity was via MTT assay.

Another data set concerns HEK 293 cells. Kind of data set: Cryopreservation assay, flash freezing in liquid nitrogen, Calcein AM viability. It counts as cell-based, human. How it is done: Initial cryopreservation assays were performed using very simple solutions, with and without the addition of Compound 12, in order to minimize confounding outside factors. For this first set of experiments, two sample solutions were prepared. The first sample solution contained simple buffer and ethylene glycol (EG) at a concentration of 22.5% (v/v), and the second sample solution contained simple buffer, EG (22.5% (v/v)), and 5 mg/mL (0.5% (w/v)) of Compound 12.
HEK 293 cells were grown until 70% confluent, then treated with trypsin to remove adhesion proteins and yield free floating cells. Cells were counted using a hemocytometer and sample cell concentrations were adjusted to final concentrations of 10,000 cells per microliter. Cells were then compressed into tight pellets by centrifugation, and each sample was subsequently mixed with 20 μL of one of the sample solutions. Samples were then flash frozen by immersion in liquid nitrogen, followed by rewarming in a 37° C. water bath. After the freeze-thaw process, cells were suspended in a 400× volume of culture media for recovery. The positive control sample was treated with culture media at 37° C. and not subjected to the freeze-thaw process. The negative control sample was treated with culture media only during the freeze-thaw process. After recovery, cells were stained with Calcein AM for 30 minutes and cell viability was measured using a fluorescence plate reader.
A second set of experiments was performed to evaluate the cryopreservation potential of a formulation that contained 5 mg/mL of Compound 12 plus a mixture of glycols, disaccharides, and a general buffer. Post-thaw survival following vitrification in liquid nitrogen was evaluated as described above.

The conditions of data set [3]: MilliQ water, slow cooled, −20° C., one hour; peptoid 9 mM, EG 160 mM. How it is done:
In this experiment, four water-based samples were prepared in capillary tubes containing MilliQ purified water. One sample contained only water, and another sample contained 160 mM ethylene glycol (EG). The other two samples each contained a peptoid polymer at 9 mM. One of the peptoid polymer samples contained the peptoid polymer called “Compound 1,” while the other sample contained the peptoid polymer called “Compound 10.” The sequences of the peptoid polymers are as follows:
After sample preparation, all samples were slow cooled and incubated at −20° C. on a Peltier cooled plate. After one hour, samples were removed and immediately photographed using a digital camera attached to a 180× Stereo Zoom microscope (FIG. 2A).

Entries after “also recorded” stand apart in the source; their conditions may differ.

As for `CCC(C)NCC(=O)N(CC(=O)N(CC(=O)N(CC(=O)N(CC(=O)N(CC(=O)N(CC(=O)N(CC(=O)N(CC(=O)N(CC(N)=O)CC(C)O)C(C)CC)C(C)CC)C(C)CC)CC(C)O)CC(C)O)CC(C)O)C(C)CC)C(C)CC` (stereo not drawn) [Compound 2, Nsb-Nsb-Nsb-Nhp-Nhp-Nhp-Nsb-Nsb-Nsb-Nhp], in data set [1], the “reduction of necessary EG concentration while preventing ice formation (ice ring scores)” value was “significantly reduced necessary EG concentrations while preventing ice formation”.
Same read-out and setting: then `CCC(C)NCC(=O)N(CC(=O)N(CC(=O)N(CC(=O)N(CC(=O)N(CC(=O)N(CC(=O)N(CC(=O)N(CC(=O)N(CC(N)=O)CC(C)O)CC(C)O)CC(C)O)C(C)CC)CC(C)O)CC(C)O)CC(C)O)CC(C)O)CC(C)O` (stereo not drawn) [Compound 8, Nsb-Nhp-Nhp-Nhp-Nhp-Nhp-Nsb-Nhp-Nhp-Nhp], with “significantly reduced necessary EG concentrations while preventing ice formation”.
Consider `CCC(C)NCC(=O)N(CC(=O)N(CC(=O)N(CC(=O)N(CC(=O)N(CC(=O)N(CC(=O)N(CC(=O)N(CC(=O)N(CC(N)=O)C(C)CC)C(C)CC)CC(C)O)CC(C)O)C(C)CC)C(C)CC)CC(C)O)CC(C)O)C(C)CC` (stereo not drawn) [Compound 12, Nsb-Nsb-Nhp-Nhp-Nsb-Nsb-Nhp-Nhp-Nsb-Nsb], for which the “vitrification on flash freezing in liquid nitrogen” value in data set [2] (buffer, 5 mg/ml (0.5% w/v)) is given as “complete vitrification with no ice formation; also recorded: vitrified”. Moreover, the “state after overnight in −20° C. freezer” value in data set [2] (100 μL, 5 mg/ml) is “remained unfrozen”. Besides, the “ice formation after flash freezing” value in data set [1] (5 mg/mL (0.5% (w/v)) with EG 17.5% (v/v) in water, stream of liquid nitrogen vapor) was “ice-free”. Also, the “anti-icing effect in comparison to EG at the same molar concentration” value in data set [1] (5 mg/mL with EG 17.5% (v/v)) was determined as 500 times. Further, in data set [1], the “reduction of necessary EG concentration while preventing ice formation (ice ring scores)” value was “significantly reduced necessary EG concentrations while preventing ice formation”. The “toxicity at the concentration that prevents ice formation” value in the data set with HEK 293 cell line (0.5% w/v) is “did not show toxicity”. Moreover, the “toxicity at four times the ice-preventing concentration” value in the data set on HEK 293 cell line (four times greater than 0.5% w/v) is recorded as “did not show significant toxicity”. For the same compound, the “toxicity compared with culture media alone” value with HEK 293 cell line (serial dilutions, 37° C., about 3 to 5 days) is on record as “did not significantly deviate from the that of culture media alone”. Also, the “vitrification of the cell sample during the freezing process” value in the data set on HEK 293 cells (buffer, EG 22.5% (v/v), 5 mg/mL, liquid nitrogen) was “complete vitrification without ice formation”. The “cell survival compared with EG alone” value in the data set on HEK 293 cells (buffer, EG 22.5% (v/v), 5 mg/mL, viability 12 hours post-thaw) is on record as “greatly improved cell survival”. In the data set with HEK 293 cells (vitrified with liquid nitrogen, viability 16 hours post-thaw, Compound 12 at 5 mg/mL plus glycols, disaccharides, general buffer), the “post-thaw survival of the cells” value was 98%.
Take `C[S+](C)[O-]` [DMSO, dimethyl sulfoxide, reference compound]: the “concentration at which warm survival for an extended period was not allowed” value with HEK 293 cell line (37° C.) was “above 0.5 % (v/v)”.
On to `OCCO` [EG, ethylene glycol], for which the ice crystal formation entry in data set [3] is “significant ice crystal formation”.
